According to US12649717B2, “Cyanine-derived compound, preparation method therefor, and application thereof” (priority 2020, dated 2026):

Experiments:
HeLa cells = test: Phototoxicity assay: HeLa cell viability (PI staining) after LED irradiation; conditions: for Cell viability under 1-minute irradiation / Cell viability under 5-minute irradiation / Cell viability under 15-minute irradiation: PI viability counting after 2 hours at 37° C.
Experimental: HeLa cells were irradiated with corresponding LED light (same light intensity for the same channel) for different periods of time under a widefield fluorescence microscope. The irradiated cells were incubated for 2 hours in a cell incubator at 37° C. Then, the cells were stained with propidium iodide (PI) for viability counting.

Rat cardiomyocytes = test: 3D-laser confocal time-series imaging of labeled rat cardiomyocytes; assay type: cell-based; conditions: 250 nM, 10-15 minutes staining
Experimental: Then, different microscopic imaging experiments were carried out.

SMILES: CC1(C)C(/C=C/C=C2/N(CCOC(=O)c3ccccc3)c3ccc4ccccc4c3C2(C)C)=[N+](CCOC(=O)c2ccccc2)c2ccc3ccccc3c21.[Br-] [Probe 1-6-1]
- Cell viability under 1-minute irradiation (HeLa cells): 100%
- Cell viability under 5-minute irradiation (HeLa cells): 95%
- Cell viability under 15-minute irradiation (HeLa cells): 25%

SMILES: C[N+]1=C(/C=C/C=C/C=C2\N(Cc3ccc(CCl)cc3)c3ccccc3C2(C)C)C(C)(C)c2ccccc21.[Cl-] [MitoTracker Deep Red FM]
- Cell viability under 1-minute irradiation (HeLa cells): 100%
- Cell viability under 5-minute irradiation (HeLa cells): 0%
- Cell viability under 15-minute irradiation (HeLa cells): 0%
- Time sequences after which labeled cells violently contracted to death (Rat cardiomyocytes): 8 time sequences

SMILES: ClCc1ccc(C2=c3cc4c5c(c3Oc3c2cc2c6c3CCCN6CCC2)CCC[N+]=5CCC4)cc1.[Cl-] [MitoTracker Red CMXRos]
- Cell viability under 1-minute irradiation (HeLa cells): 86.9%
- Cell viability under 5-minute irradiation (HeLa cells): 0%
- Cell viability under 15-minute irradiation (HeLa cells): 0%

SMILES: CC1=[N+](CCN)c2ccc3ccccc3c2C1(C)C.[Br-] [Probe 1-6]
- Cell viability under 1-minute irradiation (HeLa cells): 100%
- Cell viability under 5-minute irradiation (HeLa cells): 99%
- Cell viability under 15-minute irradiation (HeLa cells): 95%
- Phototoxicity relative to commercial dyes (times less phototoxic) (HeLa cells; HeLa cells, versus MTR CMXRos, MTDR (b53 also versus non-optimized compounds of 1-6)): about 5 times
- Phototoxicity comparison (in words) (HeLa cells; cell viability after continuous irradiation under high light intensity): lower phototoxicity
